Measurements published in PubChem BioAssay (NCI).
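Step 1: Grow cells in 96-well plates. Step 2: Expose to compound for 48 hours at 5 concentrations. Step 3: Interpolate endpoints linearly; if unreached, use highest concentration. GI50 is the concentration that inhibits growth by half. At the TGI there is no net growth.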

Columns and labels:
Test in all cases: growth of human tumour cells (NCI), 48 h
786-0 renal = tested on: 786-0 renal
A498 renal = tested on: A498 renal
A549 NSCLC = tested on: A549 NSCLC
ACHN renal = tested on: ACHN renal
BT-549 breast = tested on: BT-549 breast
CAKI-1 renal = tested on: CAKI-1 renal
CCRF-CEM leukemia = tested on: CCRF-CEM leukemia
COLO 205 colon = tested on: COLO 205 colon
DU-145 prostate = tested on: DU-145 prostate
EKVX NSCLC = tested on: EKVX NSCLC
HCC-2998 colon = tested on: HCC-2998 colon
HCT-116 colon = tested on: HCT-116 colon
HCT-15 colon = tested on: HCT-15 colon
HL-60(TB) leukemia = tested on: HL-60(TB) leukemia
HOP-62 NSCLC = tested on: HOP-62 NSCLC
HOP-92 NSCLC = tested on: HOP-92 NSCLC
HS 578T breast = tested on: HS 578T breast
HT29 colon = tested on: HT29 colon
IGROV1 ovarian = tested on: IGROV1 ovarian
K-562 leukemia = tested on: K-562 leukemia
KM12 colon = tested on: KM12 colon
LOX IMVI melanoma = tested on: LOX IMVI melanoma
M14 melanoma = tested on: M14 melanoma
MALME-3M melanoma = tested on: MALME-3M melanoma
MCF7 breast = tested on: MCF7 breast
MDA-MB-231 breast = tested on: MDA-MB-231 breast
MDA-MB-435 = tested on: MDA-MB-435
MOLT-4 leukemia = tested on: MOLT-4 leukemia
NCI-H226 lung = tested on: NCI-H226 lung
NCI-H23 lung = tested on: NCI-H23 lung
NCI-H460 lung = tested on: NCI-H460 lung
NCI-H522 lung = tested on: NCI-H522 lung
NCI/ADR-RES ovarian = tested on: NCI/ADR-RES ovarian
OVCAR-3 ovarian = tested on: OVCAR-3 ovarian
OVCAR-4 ovarian = tested on: OVCAR-4 ovarian
OVCAR-5 ovarian = tested on: OVCAR-5 ovarian
OVCAR-8 ovarian = tested on: OVCAR-8 ovarian
PC-3 prostate = tested on: PC-3 prostate
RPMI-8226 leukemia = tested on: RPMI-8226 leukemia
RXF 393 renal = tested on: RXF 393 renal
SF-268 CNS = tested on: SF-268 CNS
SF-295 CNS = tested on: SF-295 CNS
SK-MEL-28 melanoma = tested on: SK-MEL-28 melanoma
SK-MEL-5 melanoma = tested on: SK-MEL-5 melanoma
SK-OV-3 ovarian = tested on: SK-OV-3 ovarian
SN12C renal = tested on: SN12C renal
SNB-19 CNS = tested on: SNB-19 CNS
SNB-75 CNS = tested on: SNB-75 CNS
SR leukemia = tested on: SR leukemia
SW-620 colon = tested on: SW-620 colon
T-47D breast = tested on: T-47D breast
TK-10 renal = tested on: TK-10 renal
U251 CNS = tested on: U251 CNS
UACC-257 melanoma = tested on: UACC-257 melanoma
UACC-62 melanoma = tested on: UACC-62 melanoma
UO-31 renal = tested on: UO-31 renal

Molecule `COc1ccc([C@@H]2[C@@H](O)C(=O)N2c2cc(OC)c(OC)c(OC)c2)cc1F` has a GI50 (786-0 renal) of 41.9 nM, a TGI (786-0 renal) greater than 100000 nM and a GI50 (A498 renal) of 22400 nM. For the same molecule, the TGI (A498 renal) was greater than 100000 nM, the GI50 (A549 NSCLC) was 44.8 nM and the TGI (A549 NSCLC) was greater than 100000 nM. It also gave a GI50 (ACHN renal) of 56.8 nM, a TGI (ACHN renal) greater than 100000 nM and a GI50 (BT-549 breast) of 29.4 nM. It also gave a TGI (BT-549 breast) of 203 nM, a GI50 (CAKI-1 renal) of 46.3 nM and a TGI (CAKI-1 renal) greater than 61600 nM. It also gave a GI50 (CCRF-CEM leukemia) of 42.6 nM, a TGI (CCRF-CEM leukemia) greater than 100000 nM and a GI50 (COLO 205 colon) of 30.3 nM. It also gave a TGI (COLO 205 colon) of 93.3 nM, a GI50 (DU-145 prostate) of 39.5 nM and a TGI (DU-145 prostate) greater than 100000 nM. The GI50 (EKVX NSCLC) was greater than 100000 nM, the TGI (EKVX NSCLC) was greater than 100000 nM and the GI50 (HCC-2998 colon) was 48.5 nM. The TGI (HCC-2998 colon) was greater than 100000 nM, the GI50 (HCT-116 colon) was 33.9 nM and the TGI (HCT-116 colon) was greater than 100000 nM. For the same molecule, the GI50 (HCT-15 colon) was 35.9 nM, the TGI (HCT-15 colon) was greater than 100000 nM and the GI50 (HL-60(TB) leukemia) was 32.9 nM. For the same molecule, the TGI (HL-60(TB) leukemia) was 207 nM, the GI50 (HOP-62 NSCLC) was 58.2 nM and the TGI (HOP-62 NSCLC) was greater than 100000 nM. The TGI (HOP-92 NSCLC) was greater than 100000 nM, the GI50 (HS 578T breast) was 57.6 nM and the TGI (HS 578T breast) was greater than 100000 nM. It also gave a GI50 (HT29 colon) of 30.5 nM, a TGI (HT29 colon) of 110 nM and a GI50 (IGROV1 ovarian) of 51.5 nM. The TGI (IGROV1 ovarian) was greater than 100000 nM, the GI50 (K-562 leukemia) was 38.1 nM and the TGI (K-562 leukemia) was greater than 100000 nM. The GI50 (KM12 colon) was 36.8 nM, the TGI (KM12 colon) was greater than 100000 nM and the GI50 (LOX IMVI melanoma) was 38.1 nM. It also gave a TGI (LOX IMVI melanoma) greater than 100000 nM, a GI50 (M14 melanoma) of 35 nM and a TGI (M14 melanoma) greater than 100000 nM. The GI50 (MALME-3M melanoma) was 79.1 nM, the TGI (MALME-3M melanoma) was greater than 100000 nM and the GI50 (MCF7 breast) was 35.2 nM. For the same molecule, the TGI (MCF7 breast) was greater than 100000 nM, the GI50 (MDA-MB-231 breast) was 49.1 nM and the TGI (MDA-MB-231 breast) was greater than 100000 nM. The GI50 (MDA-MB-435) was 23.1 nM, the TGI (MDA-MB-435) was 57.5 nM and the GI50 (MOLT-4 leukemia) was 45.8 nM. The TGI (MOLT-4 leukemia) was greater than 100000 nM, the GI50 (NCI-H226 lung) was 34.5 nM and the TGI (NCI-H226 lung) was 432 nM. The GI50 (NCI-H23 lung) was 52.5 nM, the TGI (NCI-H23 lung) was greater than 100000 nM and the GI50 (NCI-H460 lung) was 34.4 nM. The TGI (NCI-H460 lung) was greater than 100000 nM, the GI50 (NCI-H522 lung) was 19.9 nM and the TGI (NCI-H522 lung) was 53.7 nM. The GI50 (NCI/ADR-RES ovarian) was 56.2 nM, the TGI (NCI/ADR-RES ovarian) was greater than 100000 nM and the GI50 (OVCAR-3 ovarian) was 29.9 nM. It also gave a TGI (OVCAR-3 ovarian) of 114 nM, a GI50 (OVCAR-4 ovarian) of 686 nM and a TGI (OVCAR-4 ovarian) greater than 100000 nM. It also gave a GI50 (OVCAR-5 ovarian) of 49.6 nM, a TGI (OVCAR-5 ovarian) greater than 100000 nM and a GI50 (OVCAR-8 ovarian) of 40.7 nM. The TGI (OVCAR-8 ovarian) was greater than 100000 nM, the GI50 (PC-3 prostate) was 54.6 nM and the TGI (PC-3 prostate) was greater than 100000 nM. The GI50 (RPMI-8226 leukemia) was 41.5 nM, the TGI (RPMI-8226 leukemia) was greater than 21800 nM and the GI50 (RXF 393 renal) was 30.5 nM. It also gave a GI50 (SF-268 CNS) of 98.4 nM, a TGI (SF-268 CNS) greater than 100000 nM and a GI50 (SF-295 CNS) of 36.2 nM. It also gave a TGI (SF-295 CNS) greater than 100000 nM, a GI50 (SK-MEL-28 melanoma) of 792 nM and a TGI (SK-MEL-28 melanoma) greater than 100000 nM. The GI50 (SK-MEL-5 melanoma) was 35.1 nM, the TGI (SK-MEL-5 melanoma) was 175 nM and the GI50 (SK-OV-3 ovarian) was 55.9 nM. It also gave a TGI (SK-OV-3 ovarian) greater than 84600 nM, a GI50 (SN12C renal) of 50.4 nM and a TGI (SN12C renal) greater than 100000 nM. It also gave a GI50 (SNB-19 CNS) of 79.9 nM, a TGI (SNB-19 CNS) greater than 100000 nM and a GI50 (SNB-75 CNS) of 45.6 nM. For the same molecule, the TGI (SNB-75 CNS) was greater than 100000 nM, the GI50 (SR leukemia) was 33.4 nM and the TGI (SR leukemia) was greater than 100000 nM. The GI50 (SW-620 colon) was 45.9 nM, the TGI (SW-620 colon) was greater than 100000 nM and the GI50 (T-47D breast) was greater than 55200 nM. It also gave a TGI (T-47D breast) greater than 100000 nM, a GI50 (TK-10 renal) greater than 100000 nM and a TGI (TK-10 renal) greater than 100000 nM. The GI50 (U251 CNS) was 36 nM, the TGI (U251 CNS) was greater than 100000 nM and the TGI (UACC-257 melanoma) was greater than 100000 nM. For the same molecule, the GI50 (UACC-62 melanoma) was 48.7 nM, the TGI (UACC-62 melanoma) was greater than 100000 nM and the GI50 (UO-31 renal) was 72.8 nM. The TGI (UO-31 renal) was greater than 100000 nM.
